Patent US20190262321A1, “METHODS OF TREATING DIABETIC NEPHROPATHY USING HPTPB INHIBITORS” (Aerpio Therapeutics, Inc., priority 2018, published 2019)

Legend:
[1] = system: tissue factor; assay: RT-PCR of kidney homogenate after LPS: tissue factor; type: in vivo, mice; details: versus vehicle
Experimental: (§1) Male C57BL6 mice, 9-10 weeks old, were injected i.p. with 0.2 mg E. coli LPS per 25 g body weight. The mice were injected with compound AA34 (50 mg/kg, 50 μL) or the vehicle (50 μL) at the time of lipopolysaccharide (LPS) injection, 8 after LPS injection, and 16 hours after LPS injection. The mice were sacrificed 24 h after the LPS injection. The saline-injected mice were studied in parallel as controls. Phosphatase inhibition by compound AA34 reduced renal mRNA expression of various mediators of inflammation and coagulation, as shown in FIG. 8. The kidneys of the mice were analyzed for RNA level expression of various inflammatory mediators. […] TNFR1, PAI-1, and tissue factor were expressed mainly in the endothelium, the site of Tie2 expression.

[2] = system: Male C57BL6 mice; assay: Endotoxin (LPS)-induced acute kidney injury: serum BUN and kidney histology; type: in vivo
Experimental: (§2) Male C57BL6 mice, 9-10 weeks old, were injected i.p. with 0.2 mg E. coli LPS per 25 g body weight. The mice were injected with compound AA34 (50 mg/kg, 50 μL) or the vehicle (50 μL) at the time of lipopolysaccharide (LPS) injection, 8 after LPS injection, and 16 hours after LPS injection. The mice were sacrificed 24 h after the LPS injection. The saline-injected mice were studied in parallel as controls. Serum samples from the mice were analyzed for BUN as a marker of kidney function.

[3] = system: inducible nitric oxide synthase (iNOS); assay: RT-PCR of kidney homogenate after LPS: iNOS; type: in vivo, mice; details: versus vehicle
Experimental: as §1

[4] = system: plasminogen activator inhibitor-1 (PAI-1); assay: RT-PCR of kidney homogenate after LPS: PAI-1; type: in vivo, mice; details: versus vehicle
Experimental: as §1

[5] = system: Male C57BL6 mice; assay: Renal apoptosis after LPS (DNA laddering, TUNEL staining); type: in vivo; details: versus vehicle
Experimental: as §2, with “Apoptosis was detected in kidney homogenate using DNA laddering, which is” for “Serum samples from”, “result” for “mice were analyzed for BUN as a marker”, “apoptotic DNA fragmentation. […] Terminal deoxynucleotidyl transferase dUTP nick end labeling (TUNEL) staining was used to visualize the presence of apoptotic nuclei.” for “kidney function.”

[6] = system: human subjects; assay: Assessment of renal function indices (UACR) in subjects treated with compound AA34; type: in vivo; details: for % Change in Geometric Mean (UACR): baseline to end of treatment (three months), patients with albuminuria at baseline
Experimental: The human subjects treated with compound AA34 were administered 15 mg of the compound subcutaneously twice a day for three months. One group of subjects received the compound and ranibizumab (RBZ; 0.3 mg monthly via intraocular injection), while the other group received only the compound with a sham intraocular injection. The subjects in the placebo arm received a placebo subcutaneously twice a day along with ranibizumab. […] Within the subjects that had albuminuria, 30% had microalbuminuria (>30 mg/g and <300 mg/g UACR) and 20% had macroalbuminuria (>300 mg/g UACR).
The results of the study are shown in FIG. 2 and TABLE 2 as the % change from baseline to end of treatment (three months) in geometric mean +95% confidence interval in the patients with albuminuria at baseline.

[7] = system: Male C57BL6 mice; assay: LPS-induced renal neutrophil infiltration; type: in vivo; details: 24 h after LPS injection
Experimental: as §2, with “controls.” for “controls. Serum samples from the mice were analyzed for BUN as a marker of kidney function.”

[8] = system: Tie2; assay: Immunoprecipitation of kidney homogenate for Tie2 phosphorylation after LPS; type: in vivo, mice
Experimental: Male C57BL6 mice, 9-10 weeks old, were injected i.p. with 0.2 mg E. coli LPS per 25 g body weight. The mice were injected with compound AA34 (50 mg/kg, 50 μL) or the vehicle (50 μL) at the time of lipopolysaccharide (LPS) injection, 8 after LPS injection, and 16 hours after LPS injection. The mice were sacrificed 24 h after the LPS injection. The saline-injected mice were studied in parallel as controls. Immunoprecipitation of kidney homogenate was performed to analyze the extent of Tie2 phosphorylation in the drug versus vehicle groups. Immunoprecipitation of kidney homogenate was completed using anti-Tie2 Ab, which was probed using anti-phosphotyrosine Ab. Total Tie2 levels were equal in the drug-treated and vehicle-treated groups after being injected with LPS.

[9] = system: TNFR1; assay: RT-PCR of kidney homogenate after LPS: TNFR1; type: in vivo, mice; details: versus vehicle
Experimental: as §1

[10] = system: Male C57BL6 mice; assay: Renal vascular leak after LPS (fluorescent dextrans, tomato lectin); type: in vivo; details: 24 h after LPS
Experimental: as §2, with “Mice were injected with LPS and drug (compound AA34) versus the vehicle (LPS only). 2 min prior to sacrificing the animals at 24 h,” for “Serum samples from”, “injected with 70 kDa and 500 kDa fluorescent fixable dextrans by intravenous catheter.” for “analyzed for BUN as a marker of kidney function.”

[11] = Baseline UACR 30-300 mg/g (n 31)

COC(=O)N[C@@H](Cc1ccccc1)C(=O)N[C@@H](Cc1ccc(NS(=O)(=O)O)cc1)c1csc(-c2cccs2)n1 [AA34]
reduction of renal mRNA expression of tissue factor [1]: about 0.8 fold | morphologic tubular injury (histology) ([2]; 24 h after LPS injection, drug versus vehicle): less morphologic tubular injury | LPS-induced rise in BUN ([2]; serum, 24 h after LPS, 50 mg/kg at 0, 8 and 16 hours, versus vehicle, p=0.002): statistically reduced | reduction of renal mRNA expression of iNOS [3]: about 1.5 fold | reduction of renal mRNA expression of PAI-1 [4]: about 5 fold | DNA laddering (apoptosis) in kidney homogenate [5]: less DNA laddering | apoptosis (TUNEL staining of apoptotic nuclei) [5]: less apoptosis | shift analysis: subjects with UACR 30-300 at Month 3/EOT [6, 11]: 25 (81%) | shift analysis: subjects with UACR <30 at Month 3/EOT [6, 11]: 4 (13%) | shift analysis: subjects with UACR >300 at Month 3/EOT [6, 11]: 2 (6%) | shift analysis: subjects with UACR 30-300 at Month 3/EOT ([6]; Baseline UACR <30 mg/g (n 43)): 2 (5%) | shift analysis: subjects with UACR <30 at Month 3/EOT ([6]; Baseline UACR <30 mg/g (n 43)): 41 (95%) | shift analysis: subjects with UACR >300 at Month 3/EOT ([6]; Baseline UACR <30 mg/g (n 43)): 0 | shift analysis: subjects with UACR 30-300 at Month 3/EOT ([6]; Baseline UACR >300 mg/g (n 18)): 1 (6%) | shift analysis: subjects with UACR <30 at Month 3/EOT ([6]; Baseline UACR >300 mg/g (n 18)): 1 (6%) | shift analysis: subjects with UACR >300 at Month 3/EOT ([6]; Baseline UACR >300 mg/g (n 18)): 16 (89%) | % Change in Geometric Mean (UACR) ([6]; 15 mg subcutaneously twice a day): −17.7% | % Change in Geometric Mean (UACR) ([6]; 15 mg subcutaneously twice a day, listed as All Compound): −21.2% | reduction in the UACR compared to patients receiving placebo ([6]; three months, 15 mg subcutaneously twice a day): ~20% | reduction of renal neutrophil infiltration [7]: over 50% | tyrosine phosphorylated Tie2 in kidney homogenate ([8]; LPS+Compound AA34 versus LPS+vehicle, 8 h after the last dose): increased levels | Total Tie2 levels in kidney homogenate ([8]; drug-treated versus vehicle-treated groups after LPS): equal | reduction of renal mRNA expression of TNFR1 [9]: about 6 fold | LPS-induced extrusion of dye beyond the small peritubular capillaries (vascular leak) ([10]; 70 kDa and 500 kDa fluorescent fixable dextrans): markedly reduced | tomato lectin staining of peritubular capillaries (vascular integrity) [10]: relatively preserved
